Assay results as given in patent US8299048B2, “Hexahydrocyclopentyl[f]indazole sulfonamides and derivatives thereof as selective glucocorticoid receptor modulators” (Merck Sharp & Dohme Corp., priority 2008, dated 2012).

Target: T1, glucocorticoid receptor (Homo sapiens, UniProt P04150)
T1 construct: endogenous in cells
T1 sequence (P04150 1-777): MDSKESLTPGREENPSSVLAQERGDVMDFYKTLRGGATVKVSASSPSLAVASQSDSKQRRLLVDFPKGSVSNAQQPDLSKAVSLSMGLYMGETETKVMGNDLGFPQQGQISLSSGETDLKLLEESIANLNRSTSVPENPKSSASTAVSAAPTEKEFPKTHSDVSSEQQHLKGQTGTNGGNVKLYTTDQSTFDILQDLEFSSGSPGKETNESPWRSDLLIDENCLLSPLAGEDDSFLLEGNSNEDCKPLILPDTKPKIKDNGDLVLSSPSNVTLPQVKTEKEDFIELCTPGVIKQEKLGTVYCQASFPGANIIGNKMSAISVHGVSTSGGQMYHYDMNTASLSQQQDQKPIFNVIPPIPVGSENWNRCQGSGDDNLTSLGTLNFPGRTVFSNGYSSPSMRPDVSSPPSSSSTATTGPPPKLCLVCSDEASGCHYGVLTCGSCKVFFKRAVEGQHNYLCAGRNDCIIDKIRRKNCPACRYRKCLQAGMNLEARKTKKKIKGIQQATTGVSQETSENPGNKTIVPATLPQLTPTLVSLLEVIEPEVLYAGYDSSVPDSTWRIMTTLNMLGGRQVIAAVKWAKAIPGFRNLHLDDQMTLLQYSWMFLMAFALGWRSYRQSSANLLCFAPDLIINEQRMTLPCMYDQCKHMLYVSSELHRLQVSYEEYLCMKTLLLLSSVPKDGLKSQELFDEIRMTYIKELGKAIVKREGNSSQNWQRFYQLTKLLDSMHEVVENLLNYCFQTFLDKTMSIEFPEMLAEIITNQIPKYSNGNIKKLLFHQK
Assay: Ligand binding assay (GR BIND)
Outline: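 Cytosol from freeze–thawed cells in TEGM (pH 7.2, 10 mM molybdate) was incubated overnight at 4 °C with compound and [3H]-dexamethasone trace (added as 6 nM solution), 2% EtOH final. Bound ligand was captured on hydroxylapatite, filtered, washed and scintillation counted. Values were calculated with dexamethasone as reference.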

Work on `C[C@]12Cc3cnn(-c4ccc(F)cc4)c3C=C1CC[C@@H]2CN(CC1CC1)S(=O)(=O)c1ccc(-c2ccccc2)cc1` [Example 10, N-(cyclopropylmethyl)-N-{[(4αR,5S)-1-(4-fluorophenyl)-4α-methyl-1,4,4α,5,6,7-hexahydrocyclopenta[f]indazol-5-yl]methyl}biphenyl-4-sulfonamide] yielded a Ki of 0.7 nM.

With `C[C@]12Cc3cnn(-c4ccc(F)cc4)c3C=C1CC[C@@H]2CN(CCc1ccncc1)S(=O)(=O)CC(F)(F)F` [Example 129, 2,2,2-trifluoro-N-{[(4αR,5S)-1-(4-fluorophenyl)-4α-methyl-1,4,4α,5,6,7-hexahydrocyclopenta[f]indazol-5-yl]methyl}-N-(2-pyridin-4-ylethyl)ethanesulfonamide] the Ki was 1.9 nM.

`C[C@]12Cc3cnn(-c4ccc(F)cc4)c3C=C1CC[C@@H]2CN(CC1CC1)S(=O)(=O)c1cc(C(F)(F)F)ccc1Cl` [Example 5, 2-chloro-N-(cyclopropylmethyl)-N-{[(4αR,5S)-1-(4-fluorophenyl)-4α-methyl-1,4,4α,5,6,7-hexahydrocyclopenta[f]indazol-5-yl]methyl}-5-(trifluoromethyl)benzenesulfonamide] was tested, and the Ki was 1 nM.

In the case of `C[C@]12Cc3cnn(-c4ccc(F)cc4)c3C=C1CC[C@@H]2CN(CCc1ccccc1F)S(=O)(=O)Cc1ccc(Cl)c(Cl)c1` [Example 111, 1-(3,4-dichlorophenyl)-N-[2-(2-fluorophenyl)ethyl]-N-{[(4αR,5S)-1-(4-fluorophenyl)-4α-methyl-1,4,4α,5,6,7-hexahydrocyclopenta[f]indazol-5-yl]methyl}methanesulfonamide], the Ki is reported as 1.8 nM.

Work on `CCCS(=O)(=O)N(CCOC)C[C@H]1CCC2=Cc3c(cnn3-c3ccc(F)cc3)C[C@@]21C` [Example 95, N-{[(4αR,5S)-1-(4-fluorophenyl)-4α-methyl-1,4,4α,5,6,7-hexahydrocyclopenta[f]indazol-5-yl]methyl}-N-(2-methoxyethyl)propane-1-sulfonamide] yielded a Ki of 5.2 nM.

Compound `C[C@]12Cc3cnn(-c4ccc(F)cc4)c3C=C1CC[C@@H]2CN(CCc1ccccc1F)S(=O)(=O)c1ccccc1C(F)(F)F` [Example 99, N-[2-(2-fluorophenyl)ethyl]-N-{[(4αR,5S)-1-(4-fluorophenyl)-4α-methyl-1,4,4α,5,6,7-hexahydrocyclopenta[f]indazol-5-yl]methyl}-2-(trifluoromethyl)benzenesulfonamide] has a Ki of 1.4 nM.

Compound `C[C@]12Cc3cnn(-c4ccc(F)cc4)c3C=C1CC[C@@H]2CN(CCc1ccccn1)S(=O)(=O)Cc1ccccn1` [Example 165, N-{[(4αR,5S)-1-(4-fluorophenyl)-4α-methyl-1,4,4α,5,6,7-hexahydrocyclopenta[f]indazol-5-yl]methyl}-1-pyridin-2-yl-N-(2-pyridin-2-ylethyl)methanesulfonamide] has a Ki of 1.6 nM.

`C[C@H](O)CN(C[C@H]1CCC2=Cc3c(cnn3-c3ccc(F)cc3)C[C@@]21C)S(=O)(=O)CC(F)(F)F` [Example 113] gave a Ki of 2.2 nM.

In the case of `COc1ccccc1CCN(C[C@H]1CCC2=Cc3c(cnn3-c3ccc(F)cc3)C[C@@]21C)S(=O)(=O)Cc1cccnc1` [Example 125, N-{[(4αR,5S)-1-(4-fluorophenyl)-4α-methyl-1,4,4α,5,6,7-hexahydrocyclopenta[f]indazol-5-yl]methyl}-N-[2-(2-methoxyphenyl)ethyl]-1-pyridin-3-ylmethanesulfonamide], the Ki is reported as 1 nM.

`C[C@]12Cc3cnn(-c4ccc(F)cc4)c3C=C1CC[C@@H]2CN(CCc1ccccc1O)S(=O)(=O)Cc1cccnc1` [Example 131, N-{[(4αR,5S)-1-(4-fluorophenyl)-4α-methyl-1,4,4α,5,6,7-hexahydrocyclopenta[f]indazol-5-yl]methyl}-N-[2-(2-hydroxyphenyl)ethyl]-1-pyridin-3-ylmethanesulfonamide] gave a Ki of 1.7 nM.

For `C[C@]12Cc3cnn(-c4ccc(F)cc4)c3C=C1CC[C@@H]2CN(CCc1ccccc1CO)S(=O)(=O)CC(F)(F)F` [Example 163, 2,2,2-trifluoro-N-{[(4αR,5S)-1-(4-fluorophenyl)-4α-methyl-1,4,4α,5,6,7-hexahydrocyclopenta[f]indazol-5-yl]methyl}-N-{2-[2-(hydroxymethyl)phenyl]ethyl}ethanesulfonamide], the Ki was 1.7 nM.

`C[C@]12Cc3cnn(-c4ccc(F)cc4)c3C=C1CC[C@@H]2CN(CCc1ccccc1O)S(=O)(=O)c1ccccc1F` [Example 116, 2-fluoro-N-{[(4αR,5S)-1-(4-fluorophenyl)-4α-methyl-1,4,4α,5,6,7-hexahydrocyclopenta[f]indazol-5-yl]methyl}-N-[2-(2-hydroxyphenyl)ethyl]benzenesulfonamide] gave a Ki of 1.4 nM.

`CC(CN(C[C@H]1CCC2=Cc3c(cnn3-c3ccc(F)cc3)C[C@@]21C)S(=O)(=O)CC(F)(F)F)c1cccnc1` (stereo partly drawn) [Example 146, 2,2,2-trifluoro-N-{[(4αR,5S)-1-(4-fluorophenyl)-4α-methyl-1,4,4α,5,6,7-hexahydrocyclopenta[f]indazol-5-yl]methyl}-N-(2-pyridin-3-ylpropyl)ethanesulfonamide] was tested, and the Ki was 0.8 nM.

For `C[C@]12Cc3cnn(-c4ccc(F)cc4)c3C=C1CC[C@@H]2CN(Cc1cccnn1)S(=O)(=O)CC(F)(F)F` [Example 132, 2,2,2-trifluoro-N-{[(4αR,5S)-1-(4-fluorophenyl)-4α-methyl-1,4,4α,5,6,7-hexahydrocyclopenta[f]indazol-5-yl]methyl}-N-(pyridazin-3-ylmethyl)ethanesulfonamide], the Ki was 5.5 nM.

`C[C@]12Cc3cnn(-c4ccccc4)c3C=C1CC[C@@H]2CN(CCc1ccccn1)S(=O)(=O)Cc1cccnc1` [Example 140, N-{[(4αR,5S)-4α-methyl-1-phenyl-1,4,4α,5,6,7-hexahydrocyclopenta[f]indazol-5-yl]methyl}-1-pyridin-3-yl-N-(2-pyridin-2-ylethyl)methanesulfonamide] showed a Ki of 4.1 nM.

`CC(=O)Nc1ccc(S(=O)(=O)N(CC2CC2)C[C@H]2CCC3=Cc4c(cnn4-c4ccc(F)cc4)C[C@@]32C)cc1` [Example 6, N-{4-[((cyclopropylmethyl){[(4αR,5S)-1-(4-fluorophenyl)-4α-methyl-1,4,4α,5,6,7-hexahydrocyclopenta[f]indazol-5-yl]methyl}amino)sulfonyl]phenyl}acetamide] was tested, and the Ki was 0.9 nM.

In the case of `CCCCCCCCS(=O)(=O)N(CCc1ccccc1F)C[C@H]1CCC2=Cc3c(cnn3-c3ccc(F)cc3)C[C@@]21C` [Example 104, N-[2-(2-fluorophenyl)ethyl]-N-{[(4αR,5S)-1-(4-fluorophenyl)-4α-methyl-1,4,4α,5,6,7-hexahydrocyclopenta[f]indazol-5-yl]methyl}octane-1-sulfonamide], the Ki is reported as 9.8 nM.

`C[C@]12Cc3cnn(-c4ccc(F)cc4)c3C=C1CC[C@@H]2CN(CC1CCCO1)S(=O)(=O)Cc1cccc(C(F)(F)F)c1` (stereo partly drawn) [Example 110, N-{[(4αR,5S)-1-(4-fluorophenyl)-4α-methyl-1,4,4α,5,6,7-hexahydrocyclopenta[f]indazol-5-yl]methyl}-N-(tetrahydrofuran-2-ylmethyl)-1-[3-(trifluoromethyl)phenyl]methanesulfonamide] was tested, and the Ki was 1.4 nM.

In the case of `C[C@]12Cc3cnn(-c4ccc(F)cc4)c3C=C1CC[C@@H]2CN(CCc1ccccc1F)S(=O)(=O)Cc1ccccc1C(F)(F)F` [Example 108, N-[2-(2-fluorophenyl)ethyl]-N-{[(4αR,5S)-1-(4-fluorophenyl)-4α-methyl-1,4,4α,5,6,7-hexahydrocyclopenta[f]indazol-5-yl]methyl}-1-[2-(trifluoromethyl)phenyl]methanesulfonamide], the Ki is reported as 2.3 nM.
